# Laboratory results published in ChEMBL document CHEMBL3885881, “DrugMatrix”.
# “And” between values parts separate entries of the source, which are not always exact repeats. Identical values can stand only once.
# Species on record: Rattus norvegicus
# Experiment: DrugMatrix - Regimen: Daily Repeat
# Type: toxicity, organism-based, Sprague-Dawley
# Parameters: regimen Daily Repeat, gender Male, age 6-8 weeks
# Conditions: in vivo, ip, 0 mg/kg, route intraperitoneal, dose level Control, vehicle 100 % SALINE; for ABSOLUTE BASOPHIL / ABSOLUTE EOSINOPHIL / ABSOLUTE LYMPHOCYTE / ABSOLUTE MONOCYTE / ABSOLUTE SEGMENTED NEUTROPHIL / BASOPHIL / EOSINOPHIL / ERYTHROCYTE COUNT / HEMATOCRIT / HEMOGLOBIN / LEUKOCYTE COUNT / LYMPHOCYTE / MEAN CORPUSCULAR HEMOGLOBIN / MEAN CORPUSCULAR HEMOGLOBIN CONCENTRATION / MEAN CORPUSCULAR VOLUME / MONOCYTE / NEUTROPHIL / PLATELET COUNT: tissue Blood
# [1] = 120 h, tissue Plasma, time 5 day
# [2] = […], tissue Plasma, time 14 day
# [3] = […], tissue Plasma, time 28 day
substance,measurement,setting,value
GOLD SODIUM THIOMALATE,ABSOLUTE BASOPHIL,"120 h, time 5 day",32 cells/µL
same,ABSOLUTE EOSINOPHIL,"120 h, time 5 day",110 cells/µL
same,ABSOLUTE LYMPHOCYTE,"120 h, time 5 day",6630 cells/µL
same,ABSOLUTE MONOCYTE,"120 h, time 5 day",140 cells/µL
same,ABSOLUTE SEGMENTED NEUTROPHIL,"120 h, time 5 day",1170 cells/µL
same,BASOPHIL,"120 h, time 5 day",0.38% and 0.35%
same,EOSINOPHIL,"120 h, time 5 day",1.28% and 0.62%
same,ERYTHROCYTE COUNT,"120 h, time 5 day",7.45 x10E6/uL and 7.26 x10E6/uL
same,HEMATOCRIT,"120 h, time 5 day",45.74% and 47.97%
same,HEMOGLOBIN,"120 h, time 5 day",14.72 G/DL and 15.38 G/DL
same,LEUKOCYTE COUNT,"120 h, time 5 day",8.11 x10E3/uL and 8.68 x10E3/uL
same,LYMPHOCYTE,"120 h, time 5 day",81.3% and 86.77%
same,MEAN CORPUSCULAR HEMOGLOBIN,"120 h, time 5 day",19.76 pg and 21.18 pg
same,MEAN CORPUSCULAR HEMOGLOBIN CONCENTRATION,"120 h, time 5 day",32.16 G/DL and 32.05 G/DL
same,MEAN CORPUSCULAR VOLUME,"120 h, time 5 day",61.38 fL and 66.15 fL
same,MONOCYTE,"120 h, time 5 day",1.76% and 1.57%
same,NEUTROPHIL,"120 h, time 5 day",14.9% and 9.53%
same,PLATELET COUNT,"120 h, time 5 day",1322.4 x10E3/uL and 1786 x10E3/uL
same,ALANINE AMINOTRANSFERASE,[1],25.8 u/L and 20.5 u/L
same,ALBUMIN,[1],3.64 G/DL and 4.35 G/DL
same,ALKALINE PHOSPHATASE,[1],300 u/L
same,ASPARTATE AMINOTRANSFERASE,[1],81.4 u/L and 86.75 u/L
same,BLOOD UREA NITROGEN,[1],14.4 mg/dL and 17 mg/dL
same,CARBON DIOXIDE,[1],29 mmol/L
same,CHOLESTEROL,[1],69.2 mg/dL and 51.25 mg/dL
same,CREATINE PHOSPHOKINASE,[1],303.2 u/L and 384.75 u/L
same,CREATININE,[1],0.56 mg/dL and 0.47 mg/dL
same,GLUCOSE,[1],125.4 mg/dL and 128.75 mg/dL
same,LACTATE DEHYDROGENASE,[1],105.4 u/L and 145 u/L
same,LIPASE,[1],22.4 u/L and 13.25 u/L
same,PHOSPHORUS,[1],11.8 mg/dL
same,POTASSIUM,[1],5.52 MEQ/L and 6.58 MEQ/L
same,SODIUM,[1],147 MEQ/L and 151 MEQ/L
same,TOTAL BILIRUBIN,[1],0.2 mg/dL and 0.33 mg/dL
same,TOTAL PROTEIN,[1],6.1 G/DL and 6.53 G/DL
same,URIC ACID,[1],1.06 mg/dL and 1.95 mg/dL
same,ABSOLUTE BASOPHIL,"[…], time 14 day",130 cells/µL
same,ABSOLUTE EOSINOPHIL,"[…], time 14 day",140 cells/µL
same,ABSOLUTE LYMPHOCYTE,"[…], time 14 day",13500 cells/µL
same,ABSOLUTE MONOCYTE,"[…], time 14 day",400 cells/µL
same,ABSOLUTE SEGMENTED NEUTROPHIL,"[…], time 14 day",2330 cells/µL
same,HEMATOCRIT,"[…], time 14 day",45.98%
same,HEMOGLOBIN,"[…], time 14 day",15.17 G/DL
same,MEAN CORPUSCULAR VOLUME,"[…], time 14 day",59.4 fL
same,NEUTROPHIL,"[…], time 14 day",14.14%
same,ABSOLUTE BASOPHIL,"[…], time 28 day",91 cells/µL
same,ABSOLUTE EOSINOPHIL,"[…], time 28 day",110 cells/µL
same,ABSOLUTE LYMPHOCYTE,"[…], time 28 day",9910 cells/µL
same,ABSOLUTE MONOCYTE,"[…], time 28 day",210 cells/µL
same,ABSOLUTE SEGMENTED NEUTROPHIL,"[…], time 28 day",1560 cells/µL
same,BASOPHIL,"[…], time 28 day",0.77%
same,EOSINOPHIL,"[…], time 28 day",0.92%
same,ERYTHROCYTE COUNT,"[…], time 28 day",8.21 x10E6/uL
same,HEMATOCRIT,"[…], time 28 day",47.53%
same,HEMOGLOBIN,"[…], time 28 day",15.65 G/DL
same,LEUKOCYTE COUNT,"[…], time 28 day",11.91 x10E3/uL
same,LYMPHOCYTE,"[…], time 28 day",83.34%
same,MEAN CORPUSCULAR HEMOGLOBIN,"[…], time 28 day",19.07 pg
same,MEAN CORPUSCULAR HEMOGLOBIN CONCENTRATION,"[…], time 28 day",32.93 G/DL
same,MEAN CORPUSCULAR VOLUME,"[…], time 28 day",57.9 fL
same,MONOCYTE,"[…], time 28 day",1.68%
same,NEUTROPHIL,"[…], time 28 day",12.97%
same,PLATELET COUNT,"[…], time 28 day",1323.8 x10E3/uL
same,ALBUMIN,[2],3.66 G/DL
same,CARBON DIOXIDE,[2],25 mmol/L
same,CHLORIDE,[2],107 MEQ/L
same,CREATINE PHOSPHOKINASE,[2],410.25 u/L
same,SODIUM,[2],149.2 MEQ/L
same,URIC ACID,[2],0.94 mg/dL
same,ALANINE AMINOTRANSFERASE,[3],30 u/L
same,ALBUMIN,[3],3.71 G/DL
same,ALKALINE PHOSPHATASE,[3],186.8 u/L
same,ASPARTATE AMINOTRANSFERASE,[3],78.2 u/L
same,BLOOD UREA NITROGEN,[3],14.2 mg/dL
same,CHOLESTEROL,[3],44.9 mg/dL
same,CREATINE PHOSPHOKINASE,[3],334.3 u/L
same,CREATININE,[3],0.6 mg/dL
same,GLUCOSE,[3],147.2 mg/dL
same,LACTATE DEHYDROGENASE,[3],123.1 u/L
same,LIPASE,[3],9.6 u/L
same,PHOSPHORUS,[3],10.01 mg/dL
same,POTASSIUM,[3],6.57 MEQ/L
